Literature values in US20250235488A1, “COMPOSITIONS AND METHODS FOR PROVIDING HEMATOPOIETIC FUNCTION” (Fred Hutchinson Cancer Center, priority 2010, published 2025).

Assays:
[1] = not given; remark: listed apart in the source

O=NN(CCCl)C(=O)NCCCl [Carmustine]
solubility in alcohol: freely soluble
solubility in lipids: highly soluble
solubility in water: slightly soluble
CSF concentrations as percentage of concurrent plasma concentrations ([1]; in vivo): 15-70%
time after which no intact drug is detectable in plasma ([1]; in vivo, iv): 15 min

Nc1ccn([C@@H]2O[C@H](CO)[C@@H](O)[C@@H]2O)c(=O)n1 [Cytarabine]
plasma half-life, initial phase ([1]; after rapid IV injection): about 10 minutes
plasma half-life, terminal phase ([1]; after rapid IV injection): 1 to 3 h
dose excreted in the urine within 24 hours ([1]; rapid IV, IM, SQ, IT injection or continuous IV infusion): 70-80%
